Experimental findings from article PMC7125190, “Native/citrullinated LL37-specific T-cells help autoantibody production in Systemic Lupus Erythematosus” (Scientific Reports, 2020) are described below.

The subject of experiment [1] is serum antibodies (anti-native LL37/anti-cit-LL37). In words: ELISA for autoantibody detection in sera. The class given is binding, human. As to conditions: for Antibody reactivity of control disease sera compared to SLE: psoriasis, RA, SSc and UC sera. As for the experimental part:
(§1) Anti-native/cit-LL37, other antigen antibodies (anti-DNA and anti-RNA), and total anti-human IgG were measured by ELISA as described. Briefly, 96-well flat-bottom plates (Non-Binding surface polystyrene, Corning, USA) are coated with 2 μg/mL of native LL37/cit-LL37 or control proteins or human DNA or human RNA[9] or anti-human IgG antibody (Sigma) in carbonate buffer (0.1 M NaHCHO3, pH 9) for 2 hours (or over night) and washed four times with PBS 0.1% Tween-20. This washing buffer was used for washing at all steps. The blocking buffer containing 2% bovine serum albumin (BSA, Sigma) in PBS was used for at least 1 hour (or over night) to saturate unspecific binding sites. After washing, sera were diluted at various concentrations (usually 1:100 or 1:200) in PBS 2% BSA (cell culture supernatants were diluted 1:2, 1:4 or 1:10) followed by 1 hour incubation with a horseradish peroxidase–conjugated (HRP) goat anti-human IgG (Sigma-Aldrich), diluted 1:10,000 in PBS. The color was developed for 5 minutes with 3,3’,5,5’-tetramethylbenzidine (TMB) substrate (Sigma-Aldrich). The reaction was stopped by adding 50 μl of 2 N H2SO4, and absorbance determined at 450 nm with a reference wavelength of 540 nm. Anti-dsDNA in sera of lupus patients were detected by the standard clinical test Kallestad Crithidia luciliae Complete Kits for detection and semi-quantitation of autoantibodies to native DNA (nDNA) antigens by indirect fluorescence antibody (IFA) procedure. ELISA for detection of anti-tetanus antibodies (anti-TT) was from Abnova (Taiwan).

In another experiment the test system is CD3+CD4+ T-cells. The experiment is described as follows: T-cell proliferation assay (BrdU incorporation of PBMC). The class given is cell-based, human. Particulars: for CLE patients whose CD3+CD4+ cells proliferated: CLE PBMC; for CLE patients whose CD3+CD4+ cells proliferated / SLE patients whose CD3+CD4+ cells proliferated: day 6, BrdU; for CLE patients whose CD3+CD4+ cells proliferated / PSO patients whose T-cells responded / RA patients whose T-cells proliferated / SLE patients whose CD3+CD4+ cells proliferated: positive if SI ≥3; for T-cell proliferation in HD/SSc: HD (LL37, cit-LL37) and SSc (LL37) PBMC; for PSO patients whose T-cells responded: PSO PBMC, ten of twenty-nine (LL37), 3 of 21 (cit-LL37); for PSO patients whose T-cells responded / RA patients whose T-cells proliferated: BrdU; for RA patients whose T-cells proliferated: RA PBMC, two of 15; for SLE patients whose CD3+CD4+ cells proliferated: SLE PBMC, 18 of 40 (LL37), 11 of 25 (cit-LL37); for Change of T-cell response on follow-up: eight SLE patients, up to 36 months of successful standard therapy, statistically significant for native LL37; for Proliferative response in LL37-non-responders: three SLE LL37-non-responders. On the procedure:
PBMCs were purified, from EDTA-treated blood, on Ficoll-Hypaque (Pharmacia Fine Chemicals, Uppsala, Sweden) were incubated (10^5 cells/well) in 96-well-flat-bottom-microplates (BD) in T cell- […]
penicillin, and 100 μg/mL streptomycin), with/without peptides. We performed assays on fresh cells, within 1-to-3 hours from collection, or on PBMCs frozen in 90% FCS-10%DMSO, whose viability we assessed by Trypan blue exclusion, at inverted microscope.
At day3 and 5, BrdU was added (1 μg/mL). BrdU-incorporation was detected by APC-labeled anti-BrdU antibody (BD Pharmingen), after surface staining by flow cytometry. Internal control for T-cell viability and proliferation was PHA treatment (2 μg/mL). SI for proliferation was calculated by dividing percent of BrdU-staining in the presence of each peptide used to stimulate cells by percent of BrdU-staining in the absence of peptide stimulation. SI for proliferation was considered positive when>3. This cut-off was obtained by calculating the mean+2DS [1.5 + 2 (0.6)] (of the stimulation indexes calculated as above) of the proliferation of HD.
Basal % of proliferation was set using, as reference, an isotype matched antibody staining (APC- […]
Assays were repeated twice with each patient. In rare cases in which background proliferation exceed antigen-specific proliferation the assay was repeated three times. Concomitant phenotype analysis of LL37-responder T-cells included staining for CD4, CD8, CXCR5, PD1, ICOS, CCR6. […]
Background: Dividing cells build labelled thymidine or BrdU into new DNA.

The next experiment concerns PBMCs. The experiment is described as follows: LL37-specific T-cell help: autoantibodies in PBMC culture supernatants by ELISA. It counts as cell-based, human. Particulars: for anti-LL37/anti-cit-LL37 antibodies in culture supernatants: SLE PBMCs, 7 days. On the procedure: as §1
Peptide-MHC-tetramer staining of T-cell lines/clones and blood T-cells
Peptide-MHC-tetramers (Table S4) were from ProImmune, (UK), TC Metrix, (CH), Benaroya, (USA) and ImmunAware (Denmark). Staining was performed for 40 minutes at 37°C, followed by staining for CD4 (4°C, 20 minutes). Before flow cytometry-acquisition, cells were labelled with PercP-conjugated 7-AAD to exclude dead cells.
LL37 specific T-cell help for production of autoantibodies
We cultured patient PBMCs with LL37 or control antigens and low doses of hrIL-2 (added at day 6, 10U/mL), and we detected appearance of autoantibodies in the culture supernatants by ELISA at various time points (from 7-to 10 days and, when needed, after a second stimulation with autologous PBMCs and antigen). In parallel, we monitored appearance of markers typical of B-cells/plasma cells (CD20, CD27, CD38, CD138) in the CD3neg cells by flow cytometry.
Immunohistochemistry and laser scanner confocal microscopy (LSM)
We performed staining on […] paraffin or frozen sections of human lupus erythematosus skin specimens obtained from CHUV, Dept. of Dermatology. Staining with anti-cit-LL37 Mabs was performed using the antibodies Mab142 and Mab137 at 1:40 dilution, followed by incubation with a […] (Abcam). HRP and DAB (DAKO) were used to develop the color. Nuclear staining was performed with Mayer’s haematoxylin.
To visualize NETs, we seeded neutrophils on coverslips pre-treated with polylysine and stimulated them with various stimuli to induce release of the NETs. After 3 hours, cells were gently washed and stained with anti-CD15-PE or biotinylated polyclonal rabbit anti-LL37 antibodies (Innovagen), followed by addition of AlexaFluor 488-streptavidin. Frozen or paraffin-included SLE renal biopsies, obtained from Policlinico Umberto I, Rome, IT or CHUV Lausanne, CH, were stained, after saturation with blocking buffer (PBS, 0.05% tween 20, 4% BSA) for 1 hour at room temperature. Bopsies in paraffin were stained after de-paraffination in xilene (5 minutes, two times), followed by passages in: absolute ethanol (3 minutes), 95% ethanol in water (3 minutes), 80% ethanol in water (3 minutes), 70% ethanol in water (3 minutes), and antigen retrieval (5 minutes at […]

Setting [2] is: eight SLE patients with T-cell follow-up, successful standard therapy.
Setting [3] is: three SLE patients unresponsive to treatment.
The mark [4] stands for this setting: twenty-one SLE patients responding to treatment, 6-to-36 months.

For “LLGDFFRKSKEKIGKEFKRIVQRIKDFLRNLVPRTES [LL37, native LL37, antimicrobial peptide, 37 aa]”, the “SLE patients with antibody reactivity” value in experiment [1] (SLE sera, twenty-one (native LL37) and eighteen (cit-LL37) of 40) is 53%. Besides, in experiment [1] (setting [2]), the “Antibody reactivity over time” value was “significantly declined”. Further, the “Antibody reactivity of control disease sera compared to SLE” value in experiment [1] is reported as “significantly weaker”. The “Antibody reactivity over time” value in experiment [1] (setting [3]) is “increased”. In addition, the “Antibody reactivity over time” value in experiment [1] (setting [4]) is listed as “declined in parallel with SLEDAI reduction”. Besides, in the experiment with CD3+CD4+ T-cells, the “CLE patients whose CD3+CD4+ cells proliferated” value is on record as “three of five”, the “T-cell proliferation in HD/SSc” value is recorded as “No SSc or HD showed a significant response”, the “PSO patients whose T-cells responded” value is listed as 34% and the “RA patients whose T-cells proliferated” value is 13%. In the experiment on CD3+CD4+ T-cells, the “SLE patients whose CD3+CD4+ cells proliferated” value came to 45%, the “Change of T-cell response on follow-up” value was “decreased” and the “Proliferative response in LL37-non-responders” value is recorded as “no proliferation”. Also, the “anti-LL37/cit-LL37 antibody production” value with PBMCs (PBMCs of psoriasis patients whose T-cells proliferate to LL37, and HD PBMCs) is “did not lead to significant anti-LL37/cit-LL37 antibody production”. The “anti-LL37/anti-cit-LL37 antibodies in culture supernatants” value in the experiment with PBMCs was “became apparent in culture supernatants”. Besides, the “anti-HNPs and anti-TT antibodies” value with PBMCs (SLE cultures) is reported as “did not increase”. The “anti-DNA- and RNA-antibody reactivity” value in the experiment with PBMCs (SLE cultures, sequential stimulation with autologous PBMCs and native LL37) is recorded as “became also detectable”.

Regarding “LLGDFFR(cit)KSKEKIGKEFKR(cit)IVQR(cit)IKDFLR(cit)NLVPR(cit)TES [cit-LL37, citrullinated LL37 (citrullinated at all five arginin positions)]”, the “Antibody reactivity over time” value in experiment [1] (setting [2]) is on record as “significantly declined”. The “Antibody reactivity of control disease sera compared to SLE” value in experiment [1] was “significantly weaker”. The “Antibody reactivity over time” value in experiment [1] (setting [3]) is on record as “increased”. Further, in experiment [1] (setting [4]), the “Antibody reactivity over time” value is reported as “declined in parallel with SLEDAI reduction”. In the experiment on CD3+CD4+ T-cells, the “CLE patients whose CD3+CD4+ cells proliferated” value is recorded as 3 of 5, the “T-cell proliferation in HD/SSc” value is recorded as “no responses in HD”, the “PSO patients whose T-cells responded” value worked out at 14% and the “RA patients whose T-cells proliferated” value was 13%. Besides, in the experiment on CD3+CD4+ T-cells, the “SLE patients whose CD3+CD4+ cells proliferated” value turned out to be 44%, the “Change of T-cell response on follow-up” value was “decreased” and the “Proliferative response in LL37-non-responders” value was “no proliferation”. Also, in the experiment with CD3+CD4+ T-cells (SLE at remission (T1), only at the highest dose), the “Proliferative response at remission” value is reported as “still significant only in response to cit-LL37”. Further, the “Proliferative response at lower antigen dose, cit-LL37 versus native” value in the experiment with CD3+CD4+ T-cells (SLE, low dose 1 μg/mL, 12 LL37/cit-LL37 responders) was “T-cells responded better to cit-LL37 than the native counterpart at lower antigen doses”. In addition, the “anti-LL37/anti-cit-LL37 antibodies in culture supernatants” value with PBMCs was “became apparent in culture supernatants”. For the same substance, the “anti-HNPs and anti-TT antibodies” value in the experiment on PBMCs (SLE cultures) is on record as “did not increase”.
